Data reported in patent publication US4816452A, “Aminothiazole substituted penicillins and antibacterial compositions thereof” (Beecham Group P.L.C., priority 1985, dated 1989).
Converted amounts (≈) assume the structure as drawn.

How the values were obtained:
[1] = tested on: H. influenzae Q1; assay: In vitro MIC, H. influenzae Q1; type: cell-based; conditions: Haemophilus influenzae
Description: (§1) |In Vitro Biological Data.

[2] = tested on: H. influenzae NEMCl; assay: In vitro MIC, H. influenzae NEMCl; type: cell-based; conditions: Haemophilus influenzae
Description: as §1

[3] = tested on: B. catarrhalis Ravasio; assay: In vitro MIC, B. catarrhalis Ravasio; type: cell-based; conditions: Moraxella catarrhalis
Description: as §1

[4] = tested on: S. aureus Oxford; assay: In vitro MIC, S. aureus Oxford; type: cell-based; conditions: Staphylococcus aureus
Description: as §1

[5] = tested on: S. aureus MB9; assay: In vitro MIC, S. aureus MB9; type: cell-based; conditions: for MIC: Staphylococcus aureus; for (M.I.C): in vivo
Description: as §1

[6] = tested on: S. aureus V573; assay: In vitro MIC, S. aureus V573 (methicillin resistant strain); type: cell-based; conditions: Staphylococcus aureus
Description: In Vitro Biological Data.
(+ = methicillin resistant strain)

[7] = tested on: S. epidermidis PHLN20; assay: In vitro MIC, S. epidermidis PHLN20; type: cell-based; conditions: Staphylococcus epidermidis
Description: as §1

[8] = tested on: S. pneumoniae 1761; assay: In vitro MIC, S. pneumoniae 1761; type: cell-based; conditions: Streptococcus pneumoniae
Description: as §1

[9] = tested on: S. aureus Smith; assay: M.I.C, S. aureus Smith; type: cell-based; conditions: Staphylococcus aureus, in vivo
[10] = tested on: S. aureus Smith; assay: In vivo experimental infection in mice, S. aureus Smith; conditions: Staphylococcus aureus, sc, subcutaneous, dosed at 1 and 5 hours after infection, 5 mice/group, read-out: Total S.C. CD50
Experimental: (§2) In Vivo Biological Data.
(§3) The compound of example 4 was tested in vivo in mice
(§4) against experimental infections. The results of these
(§5) *dosed at 1 and 5 hours after infection. 5 mice/group.

[11] = tested on: S. aureus MB9; assay: In vivo experimental infection in mice, S. aureus MB9; conditions: Staphylococcus aureus, sc, subcutaneous, dosed at 1 and 5 hours after infection, 5 mice/group, read-out: Total S.C. CD50
Experimental: as §2, §3, §4, §5

[12] = Blood concentration in mice after subcutaneous administration; type: in vivo; conditions: mouse, sc, 50 mg/kg
Experimental: The compound of example 4 was administered to mice (5) by the subcutaneous route at a dosage of 50 mg/kg and the blood concentration determined.

| Structure (SMILES) | MIC [1] [µg/mL] | MIC [2] [µg/mL] | MIC [3] [µg/mL] | MIC [4] [µg/mL] | MIC [5] [µg/mL] | (M.I.C) [5] [µg/mL] | MIC [6] [µg/mL] | MIC [7] [µg/mL] | MIC [8] [µg/mL] | MIC [9] [µg/mL] | ED50 [10] [mg/kg] | ED50 [11] [mg/kg] | AUC [12] [ng·h/mL] | concentration at 5 min ([12]; 5 mins) [ng/mL] | concentration at 10 min ([12]; 10 mins) [ng/mL] | concentration at 20 min ([12]; 20 mins) [ng/mL] | concentration at 0.5 h ([12]; 30 mins) [ng/mL] | concentration at 1 h ([12]; 60 mins) [ng/mL] | concentration at 2 h ([12]; 120 mins) [ng/mL] |
| --- | --- | --- | --- | --- | --- | --- | --- | --- | --- | --- | --- | --- | --- | --- | --- | --- | --- | --- | --- |
| CC1(C)S[C@@H]2[C@H](NC(=O)/C(=N\OC3CCCCC3)c3csc(N)n3)C(=O)N2[C@H]1C(=O)O [Example 4, Sodium 6β-[2-(2-aminothiazol-4-yl)-(Z)-2-cyclohexyloxyiminoacetamido]penicillanate] | 0.12 | 0.5 | 0.25 | 0.12 | 0.5 | 0.5 | 4 | 0.25 | < 0.03 | 0.12 | 1.5 | 4 | 9520 | 31000 | 21800 | 14300 | 7700 | 900 | < 90 |
| Cc1onc(-c2c(F)cccc2Cl)c1C(=O)N[C@@H]1C(=O)N2[C@@H]1SC(C)(C)[C@@H]2C(=O)O [flucloxacillin, reference compound] | 4 (≈ 8.81 µM) | 16 (≈ 35.3 µM) | 16 (≈ 35.3 µM) | 0.25 (≈ 0.551 µM) | 0.5 (≈ 1.1 µM) | 0.5 | 32 (≈ 70.5 µM) | 0.25 (≈ 0.551 µM) | 0.25 (≈ 0.551 µM) | 0.25 (≈ 0.551 µM) | 6 | 17 | – | – | – | – | – | – | – |
